Assay results: patent EP1200395B1, “UREA DERIVATIVES AS INHIBITORS OF CCR-3 RECEPTOR” (KIRIN BEER KABUSHIKI KAISHA, priority 1999, dated 2001)

Tests used:
CCR-3 [1] = target: T1, CCR-3 (Homo sapiens, UniProt P51677); assay: Eotaxin-induced chemotaxis of CCR-3 transfectant cells (CCR3/U937); assay type: cell-based; design: expressed in transfected cells; host or cells: U937; settings: 6.25 µg/ml test compound; eotaxin 1 x 10^-9 M; CCR3/U937 cells (Table 3b)
T1 sequence (P51677 1-355): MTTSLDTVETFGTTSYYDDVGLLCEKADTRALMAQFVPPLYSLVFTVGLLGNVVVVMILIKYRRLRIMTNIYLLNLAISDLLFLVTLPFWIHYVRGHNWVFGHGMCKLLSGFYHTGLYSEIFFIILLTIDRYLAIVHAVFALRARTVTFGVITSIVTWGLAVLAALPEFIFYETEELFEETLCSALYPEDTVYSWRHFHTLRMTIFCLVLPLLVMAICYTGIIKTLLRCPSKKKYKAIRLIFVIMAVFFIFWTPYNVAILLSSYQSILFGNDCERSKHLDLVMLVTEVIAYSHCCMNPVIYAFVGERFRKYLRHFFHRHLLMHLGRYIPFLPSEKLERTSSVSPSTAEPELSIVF

CCR-3 [2] = target: T1, CCR-3; assay: Calcium mobilization assay (inhibition of eotaxin-induced intracellular calcium mobilization in CCR3/HEK293 cells); assay type: cell-based; design: expressed in transfected cells; settings: 6.25 µg/ml test compound; eotaxin 10 nM; CCR3/HEK293 cells (Table 2a)
Experimental: Compounds 93-162 used in this assay were synthesized by using the method described in Example 6.
CCR-3 transfectant cells (CCR3/HEK293) were isolated and resuspended with assay buffer (20 mM HEPES, 125 mM NaCl, 5 mM KCl; 0.5 mM glucose, 1 mM CaCl2, 1 mM MgCl2, 0.1 % BSA). After washing CCR3/HEK293 cells with assay buffer, cells were loaded with Fura-2/AM in assay buffer for 1 hour at room temperature. Cells were washed and resuspended with assay buffer at 5 x 10^6 cells/ml in assay buffer, and placed in a tissue culture plate (Falcon, no. 3296). Test compounds dissolved in DMSO were added to the wells, followed by eotaxin (10 nM at final concentration). Cells were excited at 340 nm and 380 nm in a fluorimeter (ARGUS50, FDSS2000, Hamamatsu Photonics) and the relative ratio of the fluorescence emitted at 510 nm was recorded. For a control, DMSO without a test compound was added. Intracellular calcium mobilization was calculated as described in Krogel C. et al. , FEBS Let. (1989) 243 , 41-46.

CCR-3 Transfectant Chemotaxis Assay 6.25 µg/ml (inhibition %) (CCR-3 [1]) [%]	Ca^2+ mobilization 6.25 µg/ml (inhibition %) (CCR-3 [2])	SMILES
21	57%	O=C(O)CCCN(CCCNC(=O)Nc1ccc(Cl)c(C(F)(F)F)c1)CCC(c1ccccc1)c1ccccc1 [Compound 97]
47	. 53%	CC(C)CCN(CCCNC(=O)Nc1ccccc1-c1ccccc1)Cc1ccc2c(c1)OCO2 [Compound 99]
12	51%	CCOC(=O)C1CC1CN(CCCNC(=O)Nc1ccccc1-c1ccccc1)CCc1ccc(OC)c(OC)c1 (stereo not drawn) [Compound 109]
32	57%	COc1ccc(CCN(CCCNC(=O)Nc2ccccc2-c2ccccc2)C[C@@H]2CCCN2)cc1OC [Compound 110]
66	51%	CC(C)CN(CCCNC(=O)Nc1ccccc1-c1ccccc1)CCc1ccc(Cl)c(Cl)c1 [Compound 113]
22	51%	O=C(NCCCN(CCc1ccccc1)CCc1ccc(Cl)c(Cl)c1)Nc1ccccc1-c1ccccc1 [Compound 114]
62	58%	CC(C)CN(CCCNC(=O)Nc1ccc(Br)cc1)CCc1c[nH]cn1 [Compound 118]
33	55%	O=C(NCCCN(Cc1ccc2c(c1)OCO2)C[C@@H]1CCCN1)Nc1ccc(Br)cc1 [Compound 128]
11	55%	Cc1ccc(CCN(CCCNC(=O)Nc2ccc(Br)cc2)CCCC(=O)O)cc1 [Compound 132]

Further lines, the molecule ahead of its results:

SMILES	CCR-3 Transfectant Chemotaxis Assay 6.25 µg/ml (inhibition %) (CCR-3 [1]) [%]	Ca^2+ mobilization 6.25 µg/ml (inhibition %) (CCR-3 [2])
CSCCCN(CCCNC(=O)Nc1ccccc1-c1ccccc1)Cc1ccc2c(c1)OCO2 [Compound 100]	54	53%
O=C(NCCCN(Cc1ccc2c(c1)OCO2)C[C@@H]1CCCN1)Nc1ccccc1-c1ccccc1 [Compound 102]	19	63%
COC(=O)CCCN(CCCNC(=O)Nc1ccccc1-c1ccccc1)CCc1ccccc1 [Compound 106]	47	57%
O=C(NCCCN(CCc1ccccc1)C[C@@H]1CCCN1)Nc1ccccc1-c1ccccc1 [Compound 107]	55	53%
COc1ccc(CCN(CCCNC(=O)Nc2ccccc2-c2ccccc2)CC(C)C)cc1OC [Compound 108]	23	61%
Cc1ccc(CCN(CCCNC(=O)Nc2ccccc2-c2ccccc2)CC(C)C)cc1 [Compound 111]	44	51%
CCOC(=O)C1CC1CN(CCCNC(=O)Nc1ccccc1-c1ccccc1)CCc1ccc(C)cc1 (stereo not drawn) [Compound 112]	26	52%
CCOC(=O)C1CC1CN(CCCNC(=O)Nc1ccccc1-c1ccccc1)CCc1ccc(Cl)c(Cl)c1 (stereo not drawn) [Compound 115]	62	57%
O=C(NCCCN(CCc1ccc(Cl)c(Cl)c1)C[C@@H]1CCCN1)Nc1ccccc1-c1ccccc1 [Compound 116]	82	68%
CC(C)CCN(CCCNC(=O)Nc1ccc(Br)cc1)CCc1c[nH]cn1 [Compound 119]	65	62%
O=C(NCCCN(CCc1ccccc1)CCc1c[nH]cn1)Nc1ccc(Br)cc1 [Compound 120]	34	57%
O=C(NCCCN(CCOCc1ccccc1)CCc1c[nH]cn1)Nc1ccc(Br)cc1 [Compound 121]	64	52%
CC(C)CN(CCCNC(=O)Nc1ccc(Br)cc1)C1CCCc2ccccc21 (stereo not drawn) [Compound 122]	92	66%
CCOC(=O)C1CC1CN(CCCNC(=O)Nc1ccc(Br)cc1)C1CCCc2ccccc21 (stereo not drawn) [Compound 125]	90	65%
CC(C)CN(CCCNC(=O)Nc1ccc(Br)cc1)Cc1ccc2c(c1)OCO2 [Compound 126]	54	54%
